Where a name gives a salt, the structure may show the parent alone.
What was measured:
Bcl-2 protein = target: T1, Bcl-2 protein (histag-Bcl-2, UniProtKB P10415) (Homo sapiens, UniProt P10415); assay: Inhibition of Bcl-2 by the fluorescence polarisation technique; type: binding; conditions: fluorescence polarisation, 2 hours incubation; read-out: IC50 (nM) Bcl-2 FP
T1 construct: His tag
Method: The fluorescence polarisation tests were carried out on microplates (384 wells). The Bcl-2 protein, labelled (histag-Bcl-2 such that Bcl-2 corresponds to the UniProtKB® primary accession number: P10415), at a final concentration of 2.50×10^−8 M, is mixed with a fluorescent peptide (Fluorescein-[…]), at a final concentration of 1.00×10^−8M in a buffer solution (Hepes 10 mM, NaCl 150 mM, Tween20 0.05%, pH 7.4), in the presence or absence of increasing concentrations of test compounds. After incubation for 2 hours, the fluorescence polarisation is measured.

[1] = tested on: RS4;11 leukaemia tumour line; assay: In vitro cytotoxicity (MTT) on RS4;11; type: cell-based; conditions: Homo sapiens; RS4;11 cells, 48 hours exposure
Method: The cytotoxicity studies were carried out on the RS4;11 leukaemia tumour line.
The cells are distributed onto microplates and exposed to the test compounds for 48 hours.
The cell viability is then quantified by a colorimetric assay, the Microculture Tetrazolium Assay (Cancer Res., 1987, 47, 939-942).

T1 sequence (P10415 whole entry): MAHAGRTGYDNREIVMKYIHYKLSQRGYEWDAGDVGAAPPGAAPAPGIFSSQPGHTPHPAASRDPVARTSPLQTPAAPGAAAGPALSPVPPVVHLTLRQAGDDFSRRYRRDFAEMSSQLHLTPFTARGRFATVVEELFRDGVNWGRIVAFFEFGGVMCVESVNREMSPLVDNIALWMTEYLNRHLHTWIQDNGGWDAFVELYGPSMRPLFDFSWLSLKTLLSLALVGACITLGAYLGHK

IC50 (Bcl-2 protein) [nM] | SMILES | IC50 [1] [nM]
17.9 | C[C@@H]1Cc2ccccc2CN1C(=O)c1cc2c(cc1-c1cc(C(=O)N(c3ccc(O)cc3)c3ccc4c(ccn4C)c3)c3n1CCCC3)OCO2 [Example 1, N-(4-Hydroxyphenyl)-3-(6-{[(3R)-3-methyl-3,4-dihydroisoquinolin-2(1H)-yl]carbonyl}-1,3-benzodioxol-5-yl)-N-(1-methyl-1H-indol-5-yl)-5,6,7,8-tetrahydro-indolizine-1-carboxamide] | 11.3
17 | C[C@@H]1Cc2ccccc2CN1C(=O)c1cc2c(cc1-c1cc(C(=O)N(c3ccc(O)cc3)c3ccc4c(ccn4CCN4CCOCC4)c3)c3n1CCCC3)OCO2 [Example 2, N-(4-Hydroxyphenyl)-3-(6-{[(3R)-3-methyl-3,4-dihydroisoquinolin-2(1H)-yl]carbonyl}-1,3-benzodioxol-5-yl)-N-{1-[2-(morpholin-4-yl)ethyl]-1H-indol-5-yl}-5,6,7,8-tetrahydroindolizine-1-carboxamide hydrochloride] | 36
40.6 | C[C@@H]1Cc2ccccc2CN1C(=O)c1ccc(F)cc1-c1cc(C(=O)N(c2ccc(O)cc2)c2ccc(F)cc2)c2n1CCNC2 [Example 9, 6-(5-Fluoro-2-{[(3R)-3-methyl-3,4-dihydroisoquinolin-2(1H)-yl]carbonyl}-phenyl)-N-(4-fluorophenyl)-N-(4-hydroxyphenyl)-1,2,3,4-tetrahydropyrrolo[1,2-a]-pyrazine-8-carboxamide hydrochloride] | 780
24.7 | Cc1ccc(N(C(=O)c2cc(-c3cc(F)ccc3C(=O)N3Cc4ccccc4C[C@H]3C)n3c2CNCC3)c2ccc(O)cc2)cc1F [Example 10, 6-(5-Fluoro-2-{[(3R)-3-methyl-3,4-dihydroisoquinolin-2(1H)-yl]-carbonyl}phenyl)-N-(3-fluoro-4-methylphenyl)-N-(4-hydroxyphenyl)-1,2,3,4-tetrahydropyrrolo[1,2-a]pyrazine-8-carboxamide hydrochloride] | 439
10.9 | C[C@@H]1Cc2ccccc2CN1C(=O)c1cc2c(cc1-c1cc(C(=O)N(c3ccc(O)cc3)c3ccc4c(cnn4C)c3)c3n1CCNC3)OCO2 [Example 11, N-(4-Hydroxyphenyl)-6-(6-{[(3R)-3-methyl-3,4-dihydroisoquinolin-2(1,H)-yl]carbonyl}-1,3-benzodioxol-5-yl)-N-(1-methyl-1H-indazol-5-yl)-1,2,3,4-tetrahydropyrrolo[1,2-a]pyrazine-8-carboxamide hydrochloride] | 83.7
5.8 | O=C(c1cc(-c2cc3c(cc2C(=O)N2Cc4ccccc4C[C@H]2CCN2CCOCC2)OCO3)n2c1CCCC2)N(c1ccccc1)c1ccc(O)cc1 [Example 13, N-(4-Hydroxyphenyl)-3-(6-{[(3S)-3-[2-(morpholin-4-yl)ethyl]-3,4-dihydroisoquinolin-2(1H)-yl]carbonyl}-1,3-benzodioxol-5-yl)-N-phenyl-5,6,7,8-tetrahydroindolizine-1-carboxamide hydrochloride] | 33.6
3.7 | Cn1ncc2cc(N(C(=O)c3cc(-c4cc5c(cc4C(=O)N4Cc6ccccc6C[C@H]4CCN4CCOCC4)OCO5)n4c3CCCC4)c3ccc(O)cc3)ccc21 [Example 14, N-(4-Hydroxyphenyl)-N-(1-methyl-1H-indazol-5-yl)-3-(6-{[(3S)-3-[2-(morpholin-4-yl)ethyl]-3,4-dihydroisoquinolin-2(1H)-yl]carbonyl}-1,3-benzodioxol-5-yl)-5,6,7,8-tetrahydroindolizine-1-carboxamide hydrochloride] | 7.6
5.7 | C[C@@H]1Cc2ccccc2CN1C(=O)c1cc2c(cc1-c1cc(C(=O)N(c3ccccc3)c3ccc(O)cc3)c3n1CCC(N)C3)OCO2 (stereo partly drawn) [Example 15, 7-Amino-N-(4-hydroxyphenyl)-3-(6-{[(3R)-3-methyl-3,4-dihydroiso-quinolin-2(1H)-yl]carbonyl}-1,3-benzodioxol-5-yl)-N-phenyl-5,6,7,8-tetrahydro-indolizine-1-carboxamide hydrochloride] | 166
7.5 | O=C(c1cc(-c2cc3c(cc2C(=O)N2Cc4ccccc4C[C@H]2CO)OCO3)n2c1CCCC2)N(c1ccccc1)c1ccc(O)cc1 [Example 16, 3-(6-{[(3S)-3-(Hydroxymethyl)-3,4-dihydroisoquinolin-2(1H)-yl]-carbonyl}-1,3-benzodioxol-5-yl)-N-(4-hydroxyphenyl)-N-phenyl-5,6,7,8-tetrahydro-indolizine-1-carboxamide] | 252
525 | CN(C(=O)c1cc(-c2cc3c(cc2C(=O)N2CCc4ccccc4C2)OCO3)n2c1CNCC2)c1ccc(O)cc1 [Example 84, 6-[6-(3,4-Dihydroisoquinolin-2(1H)-ylcarbonyl)-1,3-benzodioxol-5-yl]-N-(4-hydroxyphenyl)-N-methyl-1,2,3,4-tetrahydropyrrolo[1,2-a]pyrazine-8-carboxamide] | 
243 | CCN(C(=O)c1cc(-c2cc3c(cc2C(=O)N2CCc4ccccc4C2)OCO3)n2c1CNCC2)c1ccc(O)cc1 [Example 85, 6-[6-(3,4-Dihydroisoquinolin-2(1H)-ylcarbonyl)-1,3-benzodioxol-5-yl]-N-ethyl-N-(4-hydroxyphenyl)-1,2,3,4-tetrahydropyrrolo[1,2-a]pyrazine-8-carboxamide] | 

Further lines, the compound ahead of its results:

SMILES | IC50 (Bcl-2 protein) [nM] | IC50 [1] [nM]
C[C@@H]1Cc2ccccc2CN1C(=O)c1ccc(Cl)cc1-c1cc(C(=O)N(c2ccc(O)cc2)c2ccc3c(ccn3C)c2)c2n1CCNC2 [Example 3, 6-(5-Chloro-2-{[(3R)-3-methyl-3,4-dihydroisoquinolin-2(1H)-yl]-carbonyl}phenyl)-N-(4-hydroxyphenyl)-N-(1-methyl-1H-indol-5-yl)-1,2,34-tetrahydropyrrolo[1,2-a]pyrazine-8-carboxamide hydrochloride] | 33.6 | 66.5
O=C(c1ccc(Cl)cc1-c1cc(C(=O)N(c2ccc(O)cc2)c2ccc3c(ccn3CCN3CCOCC3)c2)c2n1CCCC2)N1CCc2ccccc2C1 [Example 4, 3-[5-Chloro-2-(3,4-dihydroisoquinolin-2(1H)-ylcarbonyl)phenyl]-N-(4-hydroxyphenyl)-N-{1-[2-(morpholin-4-yl)ethyl]-1H-indol-5-yl}-5,6,7,8-tetrahydro-indolizine-1-carboxamide] | 56.4 | 251
O=C(c1ccc(Cl)cc1-c1cc(C(=O)N(c2ccc(O)cc2)c2ccc3c(c2)CCN3CCN2CCOCC2)c2n1CCCC2)N1CCc2ccccc2C1 [Example 5, 3-[5-Chloro-2-(3,4-dihydroisoquinolin-2(1H)-ylcarbonyl)phenyl]-N-(4-hydroxyphenyl)-N-{1-[2-(morpholin-4-yl)ethyl]-2,3-dihydro-1H-indol-5-yl}-5,6,7,8-tetrahydroindolizine-1-carboxamide] | 55.9 | 416
C[C@@H]1Cc2ccccc2CN1C(=O)c1cc2c(cc1-c1cc(C(=O)N(c3ccc(O)cc3)c3ccc4c(ccn4C)c3)c3n1CCN(C)C3)OCCO2 [Example 6, N-(4-Hydroxyphenyl)-2-methyl-6-(7-{[(3R)-3-methyl-3,4-dihydroiso-quinolin-2(1H)-yl]carbonyl}-2,3-dihydro-1,4-benzodioxin-6-yl)-N-(1-methyl-1H-indol-5-yl)-1,2,3,4-tetrahydropyrrolo[1,2-a]pyrazine-8-carboxamide hydrochloride] | 60.3 | 161
C[C@@H]1Cc2ccccc2CN1C(=O)c1ccc(Cl)cc1-c1cc(C(=O)N(c2ccc(O)cc2)c2ccc3c(ccn3C)c2)c2n1CCN(C)C2 [Example 7, 6-(5-Chloro-2-{[(3R)-3-methyl-3,4-dihydroisoquinolin-2(1H)-yl]-carbonyl}phenyl]-N-(4-hydroxyphenyl)-2-methyl-N-(1-methyl-1H-indol-5-yl)-1,2,3,4-tetrahydropyrrolo[1,2-a]pyrazine-8-carboxamide] | 46.4 | 108
C[C@@H]1Cc2ccccc2CN1C(=O)c1ccc(Cl)cc1-c1cc(C(=O)N(c2ccc(O)cc2)c2ccc3c(ccn3CCN3CCOCC3)c2)c2ccccn12 [Example 8, 3-(5-Chloro-2-{[(3R)-3-methyl-3,4-dihydroisoquinolin-2(1H)-yl]-carbonyl}phenyl)-N-(4-hydroxyphenyl)-N-{1-[2-(morpholin-4-yl)ethyl]-1H-indol-5-yl}indolizine-1-carboxamide hydrochloride] | 24.5 | 20.5
C[C@@H]1Cc2ccccc2CN1C(=O)c1ccc(Cl)cc1-c1cc(C(=O)N(c2ccc(O)cc2)c2ccc3c(cnn3C)c2)c2n1CCNC2 [Example 12, 6-(5-Chloro-2-{[(3R)-3-methyl-3,4-dihydroisoquinolin-2(1H)-yl]-carbonyl}phenyl)-N-(4-hydroxyphenyl)-N-(1-methyl-1H-indazol-5-yl)-1,2,3,4-tetrahydropyrrolo[1,2-a]pyrazine-8-carboxamide hydrochloride] | 10.4 | 116
C[C@@H]1Cc2ccccc2CN1C(=O)c1cc2c(cc1-c1cc(C(=O)N(c3ccc(O)cc3)c3cc[n+](C)cc3)c3ccccn13)OCO2 [Example 71, 4-[(4-Hydroxyphenyl){[3-(6-{[(3R)-3-methyl-3,4-dihydroisoquinolin-2(1H)-yl]carbonyl}-1,3-benzodioxol-5-yl)indolizin-1-yl]carbonyl}amino]-1-methyl-pyridinium chloride] | 49 | 
